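All cell lines were grown in 96-well plates and treated with compound for 48 hours. GI50: concentration for 50% inhibition of growth.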 The source made the active and inactive calls. No stated cut-off is given here; in the data, active = GI50 up to about 1.1 µM and inactive = higher.
Columns and labels:
Assay in all cases: growth of human tumour cells (NCI), 48 h
LOX IMVI = test system: LOX IMVI
MDA-MB-231 = test system: MDA-MB-231
NCI-H23 = test system: NCI-H23
RXF 393 = test system: RXF 393
HCC 2998 = test system: HCC 2998
MDA-MB-435 = test system: MDA-MB-435
A549 = test system: A549
Hs-578T = test system: Hs-578T
UACC-62 = test system: UACC-62
SK-MEL-28 = test system: SK-MEL-28
HT-29 = test system: HT-29
BT-549 = test system: BT-549
SF-268 = test system: SF-268
SK-MEL-2 = test system: SK-MEL-2
HL-60 = test system: HL-60
HCT-15 = test system: HCT-15
NCI/ADR-RES = test system: NCI/ADR-RES
CCRF-CEM = test system: CCRF-CEM
SK-OV-3 = test system: SK-OV-3
U-251 = test system: U-251
KM12 = test system: KM12
OVCAR-8 = test system: OVCAR-8
OVCAR-5 = test system: OVCAR-5
TK-10 = test system: TK-10
NCI-H460 = test system: NCI-H460
COLO 205 = test system: COLO 205
A498 = test system: A498
SN12C = test system: SN12C
EKVX = test system: EKVX
NCI-H226 = test system: NCI-H226
OVCAR-3 = test system: OVCAR-3
MOLT-4 = test system: MOLT-4
SNB-75 = test system: SNB-75
K562 = test system: K562
SW-620 = test system: SW-620
DU-145 = test system: DU-145
HOP-62 = test system: HOP-62
T47D = test system: T47D
CAKI-1 = test system: CAKI-1
SF-539 = test system: SF-539
SNB-19 = test system: SNB-19
UACC-257 = test system: UACC-257
IGROV-1 = test system: IGROV-1
PC-3 = test system: PC-3
ACHN = test system: ACHN
786-0 = test system: 786-0
SF-295 = test system: SF-295
NCI-H522 = test system: NCI-H522
Malme-3M = test system: Malme-3M
MCF7 = test system: MCF7
MDA-N = test system: MDA-N
M14 = test system: M14
RPMI-8226 = test system: RPMI-8226
HCT-116 = test system: HCT-116
OVCAR-4 = test system: OVCAR-4

For CCOC(=O)/C(C(=O)Nc1ccc(F)cc1)=C(/N)N1CCCC1, the GI50 (LOX IMVI) was > 100 µM (inactive), the GI50 (MDA-MB-231) was > 100 µM (inactive) and the GI50 (NCI-H23) was < 0.01 µM (active). The GI50 (RXF 393) was > 100 µM (inactive), the GI50 (HCC 2998) was > 100 µM (inactive) and the GI50 (MDA-MB-435) was > 100 µM (inactive). The GI50 (A549) was > 100 µM (inactive), the GI50 (Hs-578T) was > 100 µM (inactive) and the GI50 (UACC-62) was > 100 µM (inactive). The GI50 (SK-MEL-28) was > 100 µM (inactive), the GI50 (HT-29) was > 100 µM (inactive) and the GI50 (BT-549) was 92.9 µM (inactive). The GI50 (SF-268) was > 100 µM (inactive), the GI50 (SK-MEL-2) was > 100 µM (inactive) and the GI50 (HL-60) was > 100 µM (inactive). For the same molecule, the GI50 (HCT-15) was less than 0.01 µM, the GI50 (NCI/ADR-RES) was > 100 µM (inactive) and the GI50 (CCRF-CEM) was > 100 µM (inactive). For the same molecule, the GI50 (SK-OV-3) was > 100 µM (inactive), the GI50 (U-251) was > 100 µM (inactive) and the GI50 (KM12) was > 100 µM (inactive). The GI50 (OVCAR-8) was > 100 µM (inactive), the GI50 (OVCAR-5) was > 100 µM (inactive) and the GI50 (TK-10) was > 100 µM (inactive). For the same molecule, the GI50 (NCI-H460) was > 100 µM (inactive), the GI50 (COLO 205) was > 100 µM (inactive) and the GI50 (A498) was > 100 µM (inactive). The GI50 (SN12C) was > 100 µM (inactive), the GI50 (EKVX) was > 100 µM (inactive) and the GI50 (NCI-H226) was > 100 µM (inactive). The GI50 (OVCAR-3) was > 100 µM (inactive), the GI50 (MOLT-4) was > 100 µM (inactive) and the GI50 (SNB-75) was > 100 µM (inactive). For the same molecule, the GI50 (K562) was > 100 µM (inactive), the GI50 (SW-620) was > 100 µM (inactive) and the GI50 (DU-145) was > 100 µM (inactive). The GI50 (HOP-62) was > 100 µM (inactive), the GI50 (T47D) was > 100 µM (inactive) and the GI50 (CAKI-1) was > 100 µM (inactive). The GI50 (SF-539) was > 100 µM (inactive), the GI50 (SNB-19) was > 100 µM (inactive) and the GI50 (UACC-257) was > 100 µM (inactive). For the same molecule, the GI50 (IGROV-1) was > 100 µM (inactive), the GI50 (PC-3) was > 100 µM (inactive) and the GI50 (ACHN) was > 100 µM (inactive). For the same molecule, the GI50 (786-0) was > 100 µM (inactive), the GI50 (SF-295) was > 100 µM (inactive) and the GI50 (NCI-H522) was > 100 µM (inactive). The GI50 (Malme-3M) was > 100 µM (inactive), the GI50 (MCF7) was > 100 µM (inactive) and the GI50 (MDA-N) was > 100 µM (inactive). For the same molecule, the GI50 (M14) was > 100 µM (inactive), the GI50 (RPMI-8226) was > 100 µM (inactive) and the GI50 (HCT-116) was > 100 µM (inactive). The GI50 (OVCAR-4) was > 100 µM (inactive).
